In patent US7638678B2, “Animal model for perimenopause and menopause and methods of inducing ovarian failure” (The Arizona Board of Regents, priority 2002, dated 2009):
Entries after “also recorded” stand apart in the source; their conditions may differ.

Experiment: Body and wet tissue weights, vaginal opening
Format: in vivo, B6C3F1 mice
Experimental: Treatment: Immature mice (d28) were weighed and injected i.p. with either 80 mg/kg (1, 2, or 3 times daily), 160 mg/kg (1 or 2 times daily), or 240 mg/kg (once daily) with VCD or sesame oil (vehicle control, i.p.) for 15 d resulting in a total daily exposure of 80, 160, 240, or 320 mg/kg (n=6/group). All reagents were obtained from Sigma-Aldrich (St. Louis, Mo.). Estrous cycles of each animal were monitored daily by vaginal cytology from date of vaginal opening to persistent diestrus in VCD-treated mice, and from date of vaginal opening to d120 in controls. On d8, d10, d12, d14, d15, d30, d37, d46, d57 and d120, animals were weighed, euthanized by CO2 inhalation, and the ovaries, liver and trunk blood were collected. Plasma was separated from whole blood and stored at −20° C., and liver tissues were stored at −80° C. At each time point, adrenals, kidneys, uteri, ovaries, liver, and spleen were removed, grossly examined for lesions and wet tissue weights were recorded. Additional blood samples were collected by retro-orbital puncture and plasma was collected and stored on d58, d79, d91, and d100.

Structure (SMILES): C1CC2OC2CC1C1CO1 (stereo not shown) [VCD, 4-vinylcyclohexene diepoxide]
- Adrenal, kidney and spleen weight (160 mg/kg 15 d, any time): not affected; also recorded: no effect
- Whole body weights (160 mg/kg 15 d, any time-point): not affected
- Increase in liver weight (160 mg/kg 15 d, d15): 10 % above control
- Uterine weight relative to age-matched vehicle controls (160 mg/kg 15 d, d15): 66.04%
- Increase in liver weight (160 mg/kg 15 d, d37): 15 % above control
- Ovarian weight (160 mg/kg 15 d, d37): 71.2 % of control
- Uterine weight relative to age-matched vehicle controls (160 mg/kg 15 d, d37): 71.8%
- Liver weight (160 mg/kg 15 d, d46): returned to control levels
- Ovarian weight (160 mg/kg 15 d, d46): 61.8 % of control
- Ovarian weight (160 mg/kg 15 d, d120): 20.7 % of control
- Uterine weight relative to age-matched vehicle controls (160 mg/kg 15 d, d120): 47.0%
- Ovarian tissue weights across treatment groups (d10 or d15): not significantly different
- Onset of vaginal opening (not affected by VCD treatment): 31 ± 0.5 days
